From paper PMC12808126 (Scientific Reports, 2025)

Columns and labels:
Type in all cases: cell-based
Settings in all cases: to LPS control
TNF-α = TNF-α suppression assay
IL-1β = IL-1β suppression assay
IL-6 = IL-6 suppression assay

`NS(=O)(=O)c1ccc(-n2nc(C(=O)NN3C(=O)CCC3=O)cc2-c2ccccc2)cc1` [AS-11, N-(2,5-dioxopyrrolidin-1-yl)−5-phenyl-1-(4-sulfamoylphenyl)−1H-pyrazole-3-carboxamide] was tested, and the “TNF-α release percentage inhibition” value (TNF-α) was 91%, the “IL-1β release percentage inhibition” value (IL-1β) was 75% and the “IL-6 release percentage inhibition” value (IL-6) was 61%.
